Paper PMC7287649, “Hypoxia-Activated Prodrug Derivatives of Carbonic Anhydrase Inhibitors in Benzenesulfonamide Series: Synthesis and Biological Evaluation” (Molecules, 2020)
Several values for one entry are separate records, joined by “and”; a condition that tells them apart may be missing. Equal entries are not always repeated. Entries after “also recorded” stand apart in the source; their conditions may differ. Where two headings read alike, the source gives them in different places.

Experiments:
zebrafish larvae [1] = conditions: 100 μM; cited from earlier work
hCA I = hCA I (Homo sapiens, UniProt P00915); experiment: stopped flow CO2 hydrase assay, hCA I
Sequence of hCA I (P00915 whole entry): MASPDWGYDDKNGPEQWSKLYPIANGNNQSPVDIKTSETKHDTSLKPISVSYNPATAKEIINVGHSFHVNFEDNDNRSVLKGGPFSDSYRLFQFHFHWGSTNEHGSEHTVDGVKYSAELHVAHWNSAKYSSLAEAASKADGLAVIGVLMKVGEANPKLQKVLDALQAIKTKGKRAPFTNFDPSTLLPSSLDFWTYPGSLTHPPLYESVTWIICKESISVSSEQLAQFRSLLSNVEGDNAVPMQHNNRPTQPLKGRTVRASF
Protocol: (§8) An Sx.18Mv-R Applied Photophysics (Oxford, UK) stopped-flow instrument was used for assaying the CA catalyzed CO2 hydration activity. […] In particular, CO2 was bubbled in distilled deionized water for 30 min so that the water was saturated (the concentration at a specific temperature is known from literature). In addition, a CO2 assay kit (from Merck, Darmstadt, Germany) was used to measure the concentration in variously diluted solutions obtained from the saturated one (which was kept at the same temperature and a constant bubbling during the experiments). […] The uncatalyzed rates were determined in the same manner and subtracted from the total observed rates. Stock solutions of inhibitor (0.1 mM) were prepared in distilled deionized water and dilutions up to 0.01 nM were done thereafter with distilled deionized water. Inhibitor and enzyme solutions were pre-incubated together for 15 min–2 h (or longer, i.e., 4–6 h) at room temperature (at 4 °C for the incubation periods longer than 15 min) prior to assay, in order to allow for the formation of the EI complex. The inhibition constants were obtained by non-linear least-squares methods using PRISM 3 and the Cheng–Prusoff equation, as reported earlier [38, 39], and represent the mean from at least three different determinations. hCA I was purchased by Merck (Darmstadt, Germany) and used without further purification, whereas all the other hCA isoforms were recombinant ones obtained in-house as reported earlier [40].

zebrafish embryos = experiment: zebrafish embryo lethality (LC50); assay type: in vivo
Protocol: (§1) The hypoxia-activated prodrugs were screened for their toxicity using 24-h post-fertilization zebrafish embryos as described earlier. The compounds were either dissolved in Embryonic medium (5.0 mM NaCl, 0.17 mM KCl, 0.33 mM CaCl2, 0.33 mM MgSO4, and 0.1% w/v Methylene Blue (Sigma-Aldrich, Darmstadt, Germany) or in dimethyl sulfoxide (DMSO) (Sigma-Aldrich, St. Louis, MO, USA) to prepare 100 mM stock solutions. Before the start of each experiment, the series of dilutions were made from the above stock in the embryonic medium.
(§2) The wild-type adult zebrafish (AB strains) were maintained at 28.5 °C in an incubator [35]. In each breeding tank, about embryos 3–5 pairs of male and female fish were set up overnight for collecting the embryos. The following morning, 1–2-h post-fertilization (hpf) embryos were collected in a sieve and rinsed with embryonic medium and kept the collected embryos in an incubator at 28.5 °C overnight. The toxicity evaluation studies of the compounds were performed using the fish that were 24-hpf. All the zebrafish experiments were performed at the zebrafish core facility, Tampere University, Finland, and according to the protocol used in our laboratory.
(§3) The LC50 values for all the three prodrugs were determined using 24-hpf embryos using […] different concentrations for each compound. We used a minimum of 30 zebrafish larvae for each concentration of the compound [28, 30, 36, 42]. The 24-hpf larvae were exposed to different concentrations of the inhibitors that ranged from 20 μM to […]. A dose response curve (DRC) was calculated using the DRM (model fitting function) of the DRC R package. The control group constituted an equal number of larvae not treated with any compound and the larvae that were treated with 1% DMSO. Toxicological evaluation studies were performed in 24-well plates (Corning V R Costar V R cell culture plates). In each well, we placed 1–2 24-hpf embryos in 1 mL of embryonic medium containing a diluted inhibitor. For control groups, 1% DMSO diluted in either embryonic medium or embryonic medium with no chemical compound. A minimum of three sets of experiments were carried out for each prodrug. The mortality of the larvae was checked every 24 h until 5 days after exposure to the prodrugs.

[2] = zebrafish embryo lethality (LC50); assay type: in vivo; conditions: AB, zebrafish, in vivo, zebrafish embryos from 24 hpf, end of 5 days of exposure
Protocol: as §1, §2, §3

hCA IX = hCA IX (Homo sapiens, UniProt Q16790); experiment: stopped flow CO2 hydrase assay, hCA IX; conditions: for Selectivity Ratio KI hCA II/KI hCA IX: hCA II over hCA IX
Protocol: as §8

zebrafish larvae [3] = experiment: phenotypic analysis of zebrafish larvae; assay type: in vivo; conditions: for adverse effects on observable phenotypic parameters of the larvae: 20 μM–2 mM, 5 days post exposure; for swim bladder development: at 5 days; for phenotypic defects: at lower concentrations compared to 1b
Protocol: as §1, §2
After exposure to the prodrugs, we evaluated the effects of these compound on the zebrafish larvae by analyzing the following eight phenotypic parameters: (1) mortality, (2) hatching (3) edema (4) swimming pattern, (5) yolk sack utilization, (6) heartbeat, (7) body shape, and (8) swim bladder development. The images of the developing larvae were taken using a Lumar V1.12 fluorescence microscope (Carl Zeiss MicroImaging GmbH, Göttingen, Germany) attached to a camera with a 1.5 lens (Carl Zeiss MicroImaging GmbH, Göttingen, Germany). The images were analyzed with AxioVision software versions 4.7 and 4.8 as described in our standard protocol for the assessment of the toxicity and safety of chemical compounds.

hCA II = hCA II (Homo sapiens, UniProt P00918); experiment: stopped flow CO2 hydrase assay, hCA II
Protocol: as §8

HCT116 cells [4] = experiment: alamarBlue cell viability assay, HCT116; assay type: cell-based, human; conditions: for IC50: 2 h exposure, 72 h regrowth
Protocol: (§4) Human colorectal HCT116 and HT29 carcinoma cells were cultured in Dulbecco’s Modified Eagle Medium (DMEM, Lonza) supplemented with 10% fetal bovine serum and 1% PenStrep. Cells were exposed to anoxic conditions for 24 h in a hypoxic chamber (MACS VA500 microaerophilic workstation, Don Whitley Scientific, Bingley, UK) with an atmosphere consisting of ≤0.02% O2, 5% CO2 and residual N2. Normoxic cells were grown in regular incubators with 21% O2, 5% CO2 at 37 °C.
(§5) The cytotoxic efficacy of the bio-reducible derivatives was determined based on cell viability assays using alamarBlue® (Invitrogen). In short, HT29 and HCT116 were seeded in 96-well plates and allowed to attach overnight. On the following day, the plates were exposed to normoxia or anoxia and medium was replaced with pre-incubated normoxic or anoxic DMEM. Compounds were dissolved in DMSO (0.5%, Sigma-Aldrich) and final concentrations were made with pre-incubated anoxic or normoxic DMEM and added to the wells after 24 h of exposure. Cells were exposed to compounds for a total of 2 h, after which the medium was washed off and replaced with fresh medium. Cells were allowed to grow for an additional 72 h under normoxic conditions prior to measurement. Cells were incubated with alamarBlue® for 2 h during normoxic conditions, which corresponds with their metabolic function, a measure for cell viability. Fluorescence was measured using plate reader (FLUOstar Omega, BMG LABTECH, Ortenberg, Germany) using a fluorescence excitation wavelength of 540–580 nm.
(§6) GraphPad Prism (version 5.03, GraphPad Software, San Diego, CA, USA) was used for all statistical analyses. For the cytotoxic compounds, IC50 values were estimated with the curve of the log (inhibitor) vs. normalized response (Variable slope).

HT29 cells [5] = experiment: alamarBlue cell viability assay, HT29; assay type: cell-based, human; conditions: for IC50: Homo sapiens, HT-29
Protocol: as §4, §5, §6

HT29 cells [6] = experiment: clonogenic assay, HT29; assay type: cell-based, human; conditions: HT29, normoxia or anoxia, tested concentrations (10 to 100 μM), 30 min exposure
Protocol: as §4
(§7) Clonogenic survival HT29 and HCT116 cells were seeded with a high density for CA IX-dependent extracellular acidification. […] These cells were exposed to 23:30 h normoxic or anoxic conditions and 30 min to drugs after which cells were trypsinized and reseeded in triplicate with known cell numbers. Cells were allowed to grow for 9 (HCT116) and 14 (HT29) days to form colonies that were quantified after staining and fixation with 0.4% methylene blue in 70% ethanol. Surviving fractions were calculated and compared to control survival curves produced in the same experiment without compound treatment.

zebrafish larvae [7] = experiment: swim pattern analysis of zebrafish larvae; assay type: in vivo; conditions: 160 µM (concentration that did not induce phenotypic defects), end of 5 days of exposure
Protocol: The swim pattern of the zebrafish larvae was studied after 5 days of exposure to these compounds. For the analyses of swim pattern, about 15–20 zebrafish larvae after 5 days of exposure to the compounds were placed in a 35 mm × 15 mm petri dish containing embryonic medium, and the larvae were allowed to settle in the petri dish for 1 min. The movement of the zebrafish larvae was observed under the microscope for 1 min. […] The swim patterns were compared with the control group zebrafish larvae that were not treated with any inhibitor.

HCT116 cells [8] = experiment: clonogenic assay, HCT116; assay type: cell-based, human; conditions: HCT116, normoxia or anoxia, tested concentrations (10 to 100 μM), 30 min exposure
Protocol: as §4, §7

[9] = KI hCA I, mean from 3 different assays
[10] = Homo sapiens, HCT-116, HCT116, anoxia, read-out: IC50A
[11] = Homo sapiens, HCT-116, HCT116, normoxia, read-out: IC50N
[12] = HT29, anoxia, 2 h exposure, 72 h regrowth, read-out: IC50A
[13] = HT29, normoxia, 2 h exposure, 72 h regrowth, read-out: IC50N

Row | Compound | Ki (hCA I; [9]) | Ki (hCA IX) [µM] | Selectivity Ratio KI hCA II/KI hCA IX (hCA IX) | adverse effects on observable phenotypic parameters of the larvae (zebrafish larvae [3]) | Ki (hCA II) [µM] | IC50 (HCT116 cells [4]; [10]) [µM] | IC50 (HCT116 cells [4]; [11]) [µM] | IC50 (HT29 cells [5]; [12]) [µM] | IC50 (HT29 cells [5]; [13]) [µM] | further results
1 | Cc1ncc([N+](=O)[O-])n1CCNS(N)(=O)=O [DTP348] |  |  |  |  |  |  |  |  |  | neurotoxic effect (zebrafish larvae [1]): induced a neurotoxic effect; swim pattern (zebrafish larvae [1]): ataxic movement pattern
2 | NS(=O)(=O)c1ccc(CCNC(=O)OCc2ccc([N+](=O)[O-])o2)cc1 [Compound 4b, (5-nitrofuran-2-yl)methyl (4-sulfamoylphenethyl) carbamate] | 0.084 µM and 0.0838 µM | 0.0057 | 2.72 | adverse effect on hatching, swim bladder development, the utilization of the yolk sac, and the shape of the body and induced pericardial edema | 0.0155 |  |  |  |  | mortality of the larvae (zebrafish embryos; 500 μM): significant mortality; LC50 [2]: ~500 µM; swim bladder development (zebrafish larvae [3]; 250 μM): absence of a swim bladder; phenotypic defects (zebrafish larvae [3]; zebrafish larvae): phenotypic defects, such as edema and the absence of a swim bladder
3 | NS(=O)(=O)c1ccc(CCNC(=O)OCCNC(=O)c2cc([N+](=O)[O-])ccc2N(CCCl)CCCl)cc1 [Compound 3b, 2-(2-(bis(2-chloroethyl)amino)-5-nitrobenzamido) ethyl (4-sulfamoylphenethyl) carbamate] | 0.083 µM | 0.0323 | 0.09 |  | 0.0031 | 97.3 | 267 | > 500 | > 500 | HCR (IC50N/IC50A) (HCT116 cells [4]; HCT116, hypoxia selectivity cytotoxicity ratio): 2.7 and 2.74; cytotoxicity (HT29 cells [5]; HT29, normoxia and anoxia, tested concentrations): no cytotoxicity
4 | Cc1ncc([N+](=O)[O-])n1CCOC(=O)NCc1ccc(S(N)(=O)=O)cc1 [Compound 2c, 2-(2-methyl-5-nitro-1H-imidazol-1-yl) ethyl (4-sulfamoylbenzyl) carbamate] | 0.0023 µM | 0.0141 | 0.28 |  | 0.004 | > 500 | > 500 | > 500 | > 500 | 
5 | (5-nitrothiophen-2-yl)methyl(4-sulfamoylphenethyl)carbamate [Compound 5b] |  |  | 1.31 | adverse effect on hatching, swim bladder development, the utilization of the yolk sac, and the shape of the body and induced pericardial edema |  |  |  |  |  | Ki (hCA I; read-out: KI hCA I, mean from 3 different assays): 0.0647 µM; Ki (hCA IX; read-out: KI hCA IX, stopped flow CO2 hydrase assay, mean from 3 different assays): 0.0151 µM; edema (zebrafish larvae [3]; as early as 2 days post exposure): induced edema; phenotypic defects (zebrafish larvae [3]; zebrafish larvae): phenotypic defects, such as edema and the absence of a swim bladder; Ki (hCA II; read-out: KI hCA II, stopped flow CO2 hydrase assay, mean from 3 different assays): 0.0198 µM
6 | NS(=O)(=O)c1ccc(CNC(=O)OCCNC(=O)c2cc([N+](=O)[O-])ccc2N(CCCl)CCCl)cc1 [Compound 3c, 2-(2-(bis(2-chloroethyl)amino)-5-nitrobenzamido) ethyl (4-sulfamoylbenzyl)carbamate] | 2.18 µM | 0.0887 | 0.94 |  | 0.0837 | > 500 | > 500 | > 500 | > 500 | 
7 | Cc1ncc([N+](=O)[O-])n1CCOC(=O)NCCc1ccc(S(N)(=O)=O)cc1 [Compound 2b, 2-(2-methyl-5-nitro-1H-imidazol-1-yl) ethyl (4-sulfamoylphenethyl) carbamate] | 0.0037 µM | 0.0121 | 0.35 |  | 0.0043 | > 500 | > 500 | > 500 | > 500 | 
8 | Cn1c(COC(=O)NCCc2ccc(S(N)(=O)=O)cc2)cnc1[N+](=O)[O-] [Compound 1b, (1-methyl-2-nitro-1H-imidazol-5-yl) methyl (4-sulfamoylphenethyl) carbamate] | 0.167 µM | 0.0076 |  | minimal or no adverse effects | 0.0306 | 59.3 | 149 | 204 | > 500 | clonogenic cell survival (HT29 cells [6]): did not reduce clonogenic cell survival; IC50 (HCT116 cells [4]; HCT116, anoxia, read-out: IC50A): 59.4 µM; mortality of the larvae (zebrafish embryos; 1 mM, end of 5 days of exposure): did not cause any mortality; also recorded: no mortality observed; LC50 [2]: ~1400 µM; HCR (IC50N/IC50A) (HT29 cells [5]; HT29, hypoxia selectivity cytotoxicity ratio): >2.44; IC50N (HT29 cells [5]; HT29, normoxia, 2 h exposure, 72 h regrowth): no detectable cytotoxicity; swim bladder development (zebrafish larvae [3]; 1000 μM): absence of a swim bladder; phenotypic abnormalities (zebrafish larvae [3]; zebrafish larvae, 1 mM): no or minimal phenotypic abnormalities; swim pattern (zebrafish larvae [7]): did not induce phonotypic abnormalities in the larvae as well as abnormal or ataxic swim movement; clonogenic cell survival (HCT116 cells [8]): did not reduce clonogenic cell survival
